In patent US7410955B2, “Therapeutic use of agonist ligands specific to G2A receptor” (Biosynergen, Inc., priority 2002, dated 2008):

Columns and labels:
[1] = test system: CLP-induced Sepsis model; test: CLP-induced sepsis model; assay type: in vivo, ICR mice; conditions: 10 mg/kg intraperitoneal, same methods as Example 6-2 (four times at 12 hour intervals, 2 hours after CLP)
Experimental: After ICR mice (25-30 g in body weight; MJ Ltd.) had been anesthetized with pentobarbital, right abdominal sites of the mice were dissected in a length of 1 cm to expose their cecum, and sites below the ileocecal valve were ligated. And then, after 4˜6 punctures had been created on the cecum with 21-gauge needle, the abdomen was sutured again to cause peritonitis, thereby inducing Sepsis.
After the peritoneal cavity of mice had been exposed, it was washed with sterilized saline (2 ml). The resultant solution was diluted with HBSS (Sigma Chemical Co., USA) in a ratio of 1/1000, and then 10 μl of each diluted solution was spread on Trypticase Soy agar (BBL, Becton Dickinson Co., USA) plates. After overnight incubation at 37° C., colony forming unit (CFU) was measured.
7 mice were administered with 1-stearoyl LPC (Sigma Chemical Co., USA) dissolved in 1% BSA solution containing no fatty acid in an amount of 10 mg/kg by subcutaneous injection 2 and 14 hours after the CLP surgery, respectively (experimental group). The remaining 7 mice were administered with 1% BSA solution containing no fatty acid of the same amount as above in the same manner (control group). The numbers of intraperitoneal E. coli cells in the ICR mice of experimental and control groups were measured in accordance with Reference Example 3, 24 hours after the CLP surgery.
Each 10 ICR mice were intraperitoneally administered with 1-stearoyl LPC (Sigma Chemical Co., USA) dissolved in 1% BSA solution containing no fatty acid in amounts of 5, 10, and 20 mg/kg, respectively, four times at intervals of 12 hours, 2 hours after the CLP surgery (experimental group-1, -2 and -3). The remaining 10 ICR mice were administered only with 1% BSA solution containing no fatty acid (control group). And then, the survival rates of mice in experimental- and control groups were investigated over the lapse of time.
10 mice for the experimental group were intraperitoneally administered with 1-stearoyl LPC (Sigma Chemical Co., USA) dissolved in 1% BSA solution containing no fatty acid in an amount of 10 mg/kg, four times at intervals of 12 hours, 10 hours after the CLP surgery. The remaining 10 mice for the control group were administered only with 1% BSA solution containing no fatty acid. Thereafter, the survival rates of ICR mice in experimental- and control groups were investigated over the lapse of time.
CLP-induced Sepsis model mice were subcutaneously injected with SPC, instead of 1-stearoyl LPC, in dosages of 3 mg/kg and 30 mg/kg four times at intervals of 12 hours, 2 hours after the CLP surgery, respectively. The survival rates of mice were investigated.

[2] = target: T1, G2A (Homo sapiens, UniProt Q9UNW8); conditions: reported by Kabarowski et al., Science 2001; cited from earlier work
T1 sequence (Q9UNW8 1-380): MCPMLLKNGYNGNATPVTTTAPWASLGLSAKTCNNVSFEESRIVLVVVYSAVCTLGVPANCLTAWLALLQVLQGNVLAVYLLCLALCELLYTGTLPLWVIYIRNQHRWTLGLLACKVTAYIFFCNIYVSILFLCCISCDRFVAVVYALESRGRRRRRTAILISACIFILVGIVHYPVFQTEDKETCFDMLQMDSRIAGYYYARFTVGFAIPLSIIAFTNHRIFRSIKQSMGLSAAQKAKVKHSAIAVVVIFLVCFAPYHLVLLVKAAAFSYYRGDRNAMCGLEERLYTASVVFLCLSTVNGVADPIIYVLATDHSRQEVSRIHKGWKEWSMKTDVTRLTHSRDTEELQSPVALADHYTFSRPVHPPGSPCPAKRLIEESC

[3] = test system: neutrophils; test: Inhibition of anti-apoptosis of neutrophils by inflammation mediators (AcOr/EtBr staining); assay type: cell-based, human; conditions: 15 μM and 30 μM, 1 hour before 1 μg/ml LPS, read after 24 hours
Excerpt: Neutrophils were isolated from healthy adults using discontinuous percoll gradient according to the method of Szucs, S. et al. (J. Immunol. Methods, 167: 245-251, 1994). First, plasmas were separated from heparinized whole blood, and red blood cells were depleted by dextran sedimentation. Thereafter, leukocytes were layered over a percoll gradient with densities of 1.077 and 1.094 (Pharmacia, Sweden). Separated neutrophil layers were recovered from the percoll gradient interface, and then washed with HBSS (Hank's balanced salt solution, Sigma Chemical Co., USA). The remaining pellet was resuspended in RPMI 1640 medium supplemented with 10% FBS (fetal bovine serum) and 2 mM gentamicin. As a result of the examination of the cytospin stained with Wright-Giemsa (Sigma Chemical Co., USA), it was observed that the resuspension solution contained 95% or more neutrophils. Also, as a result of examination using trypan blue dye exclusion method, 98% or more neutrophils were observed.
1×10^5 neutrophil cells isolated in above Example <1-1> were cultured in a 96-well plate to which RPMI1640 medium containing 10% FBS was added. Thereafter, they were treated with 1-stearoyl lysophosphatidylcoline (Sigma Chemical Co., USA) in concentrations of 15 μM and 30 μM, respectively. After 1 hour, they were treated with 1 μg/ml LPS (Sigma Chemical Co.). After 24 hours, the medium was removed from the plats, and the remaining cells were washed twice with PBS (phosphate-buffered saline) buffer at 4° C. The cells adhered to the bottom of the plate were all scraped and put into a 1.5-ml eppendorf tube. Then, they were centrifuged at 2500 rpm for 5 min, and the supernatant was removed. Again, 0.1 ml of PBS buffer at 4° C. was added to the pellet, which was then well mixed using pipetting. To 25 μl of the cell suspension was added 2 μl of AcOr/EtBr dye solution in which 100 μg/ml of acridine orange (AcOr) and 100 μg/ml of ethidium bromide (EtBr) were mixed. Then, the percentage of apoptotic cells/total cells was calculated with observing the neutrophil cells under a fluorescence microscope. […]

| Molecule | therapeutic effect against Sepsis (survival) [1] | affinity of G2A to the ligand [2] | percentage of neutrophil apoptosis (apoptotic cells/total cells) that had been decreased by LPS [3] |
| --- | --- | --- | --- |
| CCCCCCCCCCCCCC(=O)OC[C@@H](O)COP(=O)([O-])OCC[N+](C)(C)C [1-myristoyl LPC, 1-myristoyl (14:0) lysophospatidylcholine] | excellent therapeutic effect | – | – |
| CCCCCCCC/C=C\CCCCCCCC(=O)OCC(O)COP(=O)([O-])OCC[N+](C)(C)C (centres unmarked) [1-oleoyl LPC, 1-oleoyl (18:1) lysophosphatidylcholine] | excellent therapeutic effect | – | – |
| CCCCCCCCCCCCC/C=C/[C@@H](O)[C@@H](N)COP(=O)([O-])OCC[N+](C)(C)C [SPC, sphingosylphosphorylcholine] | – | low affinity | increased by SPC in a concentration-dependent manner |
| lysophosphatidylcholine | – | high affinity | – |
